Assay results published in PMC6746701, “A phyB-PIF1-SPA1 kinase regulatory complex promotes photomorphogenesis in Arabidopsis” (Nature Communications, 2019).

What was measured:
SPA1-Kin = target: T1, SPA1-Kin (Arabidopsis thaliana, UniProt Q9SYX2); test: in vitro autophosphorylation assay, autoradiogram; assay type: biochemical; settings: 10 mM MgCl2, pH 7.5, 28 °C; labelled compound (gamma-32P)
T1 sequence (Q9SYX2 1-545 limits assumed): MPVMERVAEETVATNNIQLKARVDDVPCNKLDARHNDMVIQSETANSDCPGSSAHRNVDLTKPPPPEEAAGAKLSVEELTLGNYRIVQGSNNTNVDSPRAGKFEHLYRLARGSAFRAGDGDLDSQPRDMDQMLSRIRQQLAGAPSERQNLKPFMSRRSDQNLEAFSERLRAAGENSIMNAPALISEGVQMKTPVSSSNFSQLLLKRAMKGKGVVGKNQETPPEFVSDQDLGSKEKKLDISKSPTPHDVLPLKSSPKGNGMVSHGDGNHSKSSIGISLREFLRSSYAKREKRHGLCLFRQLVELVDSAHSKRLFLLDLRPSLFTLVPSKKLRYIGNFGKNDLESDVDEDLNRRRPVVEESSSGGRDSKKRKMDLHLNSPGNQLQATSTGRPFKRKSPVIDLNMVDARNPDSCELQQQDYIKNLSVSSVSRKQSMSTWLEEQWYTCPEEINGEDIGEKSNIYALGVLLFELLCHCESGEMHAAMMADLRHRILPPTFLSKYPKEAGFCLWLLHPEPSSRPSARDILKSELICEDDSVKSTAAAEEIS

[1] = target: T2, Arabidopsis phytochrome B holoprotein purified from Pichia pastoris (Arabidopsis, UniProt P14713 1-1172, phycocyanobilin chromophore assembled); test: pull-down; tripartite complex: 2 µg GST-PIF1-strep on GST agarose beads, 1-2 µg purified phyB from Pichia pastoris, with E. coli lysate holding MBP-SPA1; anti-strep blot; settings: both partners purified
T2 construct: phytochrome B (phyB), Arabidopsis; also called phyB; Pfr form of phyB; source: Pichia pastoris GS115, purified (ammonium sulfate, Strep-Tactin Sepharose)
T2 sequence (looked up): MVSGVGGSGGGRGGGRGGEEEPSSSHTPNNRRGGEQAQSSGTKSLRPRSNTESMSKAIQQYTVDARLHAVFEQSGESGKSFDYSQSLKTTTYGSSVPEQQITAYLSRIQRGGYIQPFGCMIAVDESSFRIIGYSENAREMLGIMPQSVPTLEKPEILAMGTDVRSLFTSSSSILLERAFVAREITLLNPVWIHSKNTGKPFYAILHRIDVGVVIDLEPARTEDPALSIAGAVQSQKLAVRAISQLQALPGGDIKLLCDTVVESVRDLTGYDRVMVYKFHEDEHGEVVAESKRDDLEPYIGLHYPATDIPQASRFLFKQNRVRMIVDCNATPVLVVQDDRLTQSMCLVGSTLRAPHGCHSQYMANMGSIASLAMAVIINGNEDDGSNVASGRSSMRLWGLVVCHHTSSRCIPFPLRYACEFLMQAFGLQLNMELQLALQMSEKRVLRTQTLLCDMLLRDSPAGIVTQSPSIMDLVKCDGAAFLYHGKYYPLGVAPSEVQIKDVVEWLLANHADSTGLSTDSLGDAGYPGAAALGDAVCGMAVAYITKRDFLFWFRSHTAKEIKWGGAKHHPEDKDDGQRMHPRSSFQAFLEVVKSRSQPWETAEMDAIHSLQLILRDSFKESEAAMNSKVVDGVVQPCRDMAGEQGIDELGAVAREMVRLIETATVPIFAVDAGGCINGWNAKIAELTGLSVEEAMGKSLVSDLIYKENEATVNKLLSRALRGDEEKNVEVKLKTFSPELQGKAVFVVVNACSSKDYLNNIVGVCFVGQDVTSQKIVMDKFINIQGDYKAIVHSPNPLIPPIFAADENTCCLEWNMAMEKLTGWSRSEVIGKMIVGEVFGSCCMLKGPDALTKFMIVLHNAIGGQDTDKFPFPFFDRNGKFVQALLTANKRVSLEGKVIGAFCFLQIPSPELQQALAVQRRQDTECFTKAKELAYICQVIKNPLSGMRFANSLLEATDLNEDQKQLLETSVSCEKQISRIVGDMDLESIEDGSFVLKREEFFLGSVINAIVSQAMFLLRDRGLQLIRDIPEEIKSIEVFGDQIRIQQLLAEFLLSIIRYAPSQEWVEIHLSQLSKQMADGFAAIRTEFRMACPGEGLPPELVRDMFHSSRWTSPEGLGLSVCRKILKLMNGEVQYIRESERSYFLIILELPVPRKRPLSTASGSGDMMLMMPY

| Molecule | in vitro autophosphorylation assay, autoradiogram (SPA1-Kin) | binding result [1] |
| --- | --- | --- |
| Nc1ncnc2c1ncn2[C@@H]1O[C@H](COP(=O)(O)OP(=O)(O)OP(=O)(O)O)[C@@H](O)[C@H]1O [ATP] | The purified SPA1-Kin domain displayed autophosphorylation activity in a protein concentration-dependent manner | – |
| GST-PIF1-strep (natural protein, Arabidopsis, UniProt Q8GZM7 1-478, looked up, source: E. coli BL21(DE3), purified (Strep-Tactin Sepharose); not shown: GST, N-terminal, kept; Strep tag, C-terminal, kept) MHHFVPDFDTDDDYVNNHNSSLNHLPRKSITTMGEDDDLMELLWQNGQVVVQNQRLHTKKPSSSPPKLLPSMDPQQQPSSDQNLFIQEDEMTSWLHYPLRDDDFCSDLLFSAAPTATATATVSQVTAARPPVSSTNESRPPVRNFMNFSRLRGDFNNGRGGESGPLLSKAVVRESTQVSPSATPSAAASESGLTRRTDGTDSSAVAGGGAYNRKGKAVAMTAPAIEITGTSSSVVSKSEIEPEKTNVDDRKRKEREATTTDETESRSEETKQARVSTTSTKRSRAAEVHNLSERKRRDRINERMKALQELIPRCNKSDKASMLDEAIEYMKSLQLQIQMMSMGCGMMPMMYPGMQQYMPHMAMGMGMNQPIPPPSFMPFPNMLAAQRPLPTQTHMAGSGPQYPVHASDPSRVFVPNQQYDPTSGQPQYPAGYTDPYQQFRGLHPTQPPQFQNQATSYPSSSRVSSSKESEDHGNHTTG | – | binds |
